Key:
purified CD14+ cells = experiment: Cytokine production by purified CD14+ cells (ELISA of supernatants, 36 hrs); assay type: cell-based, human; conditions: Table B, dose 2 μg/ml
Experimental: Circulating mononuclear cells (MNC) are isolated by density gradient (Ficoll-Hypaque) using buffy coats from 14 normal donors (Servizio Immunotrasfusionale e terapie cellulari, Azienda Ospedaliera Universitaria A. Meyer, Firenze). 200×10^6 MNC are separated by the use of a commercial kit (CD14 isolation kit, Miltenyi) by the addition of 400 μl anti-CD14 monoclonal antibody bound to iron beads followed by isolation on magnetic columns (LS column). 50×10^6 monocytes are recovered by positive selection and are extensively washed with calcium and magnesium-free sterile PBS and then seeded in complete medium plus 10% foetal calf serum in 24 flat bottomed plates at the concentration of 1×10^6/ml. […] The plates are incubated for 36 hrs at 37° C. in 5% CO2 humidified atmosphere and the supernatants are collected after centrifugation at 1200 rpm, aliquoted and then stored at −20° C. up to the assay. […]
(§1) For the determination of cytokines and chemokines of the innate immunity, commercial ELISAs have been used: IL-12p40 (Cytoscreen, Biosource Int, Camarillo, Calif.), IFN-alfa (Cytoscreen), TNF-alfa (Cytoscreen), IL-10 (Pharmingen), IL-6 and CXCL10 (R&D System). 100 μl/well of single supernatants are incubated in flat bottomed plates as specified by the productors and the amounts of the single cytokines are expressed as pg/ml on the basis of a reference curve by using recombinant cytokines.

purified BDCA4+ cells = experiment: Cytokine production by purified BDCA4+ cells (plasmacytoid dendritic cells), ELISA; assay type: cell-based, human
Experimental: The preparation of purified BDCA4+ cells has been obtained in a similar way starting from MNC of buffy coats of the same 14 healthy donors. […] By positive selection 5×10^6 plasmacytoid dendritic cells (PDCs) are recovered, extensively washed with calcium and magnesium-free sterile PBS and seeded in complete medium plus 10% foetal calf serum in 24-flat bottomed plates at the concentration 1×10^6/ml. […] The plates are incubated for 36 hrs at 37° C. in 5% CO2 humidified atmosphere and the supernatants are collected after centrifugation at 1200 rpm, aliquoted and then stored at −20° C. up to the assay. […]
as §1

human TLR7 = target: T1, human TLR7 (Homo sapiens, UniProt Q9NYK1); experiment: TLR7 activation, NF-kB luciferase reporter in transfected HEK293 cells; assay type: cell-based; conditions: human TLR7-encoding plasmid
T1 construct: expressed in transfected cells; host or cells: HEK293 (transient Nucleofection, Amaxa)
T1 sequence (Q9NYK1 27-1049): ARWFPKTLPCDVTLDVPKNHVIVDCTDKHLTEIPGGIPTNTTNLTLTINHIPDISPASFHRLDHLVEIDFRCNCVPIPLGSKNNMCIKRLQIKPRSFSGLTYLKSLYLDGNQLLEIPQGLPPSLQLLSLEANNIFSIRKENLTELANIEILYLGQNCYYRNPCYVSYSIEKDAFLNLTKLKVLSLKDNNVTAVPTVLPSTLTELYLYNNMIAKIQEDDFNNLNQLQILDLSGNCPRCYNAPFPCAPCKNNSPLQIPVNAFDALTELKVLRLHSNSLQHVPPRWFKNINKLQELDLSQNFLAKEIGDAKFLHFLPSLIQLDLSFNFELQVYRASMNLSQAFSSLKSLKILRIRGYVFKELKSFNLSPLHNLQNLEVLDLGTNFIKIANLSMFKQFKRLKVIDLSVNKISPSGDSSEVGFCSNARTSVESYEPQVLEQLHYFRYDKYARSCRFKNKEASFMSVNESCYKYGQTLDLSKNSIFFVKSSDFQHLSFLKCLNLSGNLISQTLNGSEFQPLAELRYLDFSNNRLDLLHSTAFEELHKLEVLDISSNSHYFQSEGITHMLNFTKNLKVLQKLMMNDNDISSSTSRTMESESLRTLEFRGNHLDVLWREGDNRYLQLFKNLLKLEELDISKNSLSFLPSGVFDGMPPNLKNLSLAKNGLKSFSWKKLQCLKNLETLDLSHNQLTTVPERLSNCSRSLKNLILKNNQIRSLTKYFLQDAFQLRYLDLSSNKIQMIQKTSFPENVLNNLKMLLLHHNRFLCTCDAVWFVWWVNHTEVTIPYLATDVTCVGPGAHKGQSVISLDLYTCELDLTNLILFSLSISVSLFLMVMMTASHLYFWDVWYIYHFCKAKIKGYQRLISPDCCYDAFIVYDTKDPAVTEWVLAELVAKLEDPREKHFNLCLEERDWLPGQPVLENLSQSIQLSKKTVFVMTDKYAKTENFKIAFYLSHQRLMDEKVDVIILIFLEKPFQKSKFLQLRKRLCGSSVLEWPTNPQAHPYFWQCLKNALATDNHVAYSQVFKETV
Experimental: HEK293 cells are detached by trypsin from the plastic surface of the culture bottle, extensively washed with calcium and magnesium-free PBS, counted and adjusted at the concentration 1×10^6 cells/tube in polypropylene V-bottomed tubes. After the final wash, the cells are pelleted and 100 μl transfection buffer (Amaxa) is added together with […], TLR7, TLR8 or TLR9-encoding and ELAM-1 promoter NF-kB luciferase reporter plasmids. The mixture thus obtained is transferred in special cuvettes and transient transfection is obtained in a special apparatus which is able to directly introduce genetic material into the nucleus (Nucleofection®, Amaxa GmbH). The cells are then recovered and cultured at 1×10^5/ml in 48-flat bottomed plates in E-MEM medium plus 5% foetal calf serum for 18 hrs. […] Finally the luciferase activity is measured in the cellular lysates by a commercial kit (Promega).

[1] = Table C, Donor #1, R-848, dose not printed in table (2 μg/ml elsewhere in the source)
[2] = Table C, Donor #2, R-848 (2 μg/ml)
[3] = Table F, Donor #1, dose 2 μg/ml
[4] = Table F, Donor #2, dose 2 μg/ml

**Q.** With `CCOCc1nc2c(N)nc3ccccc3c2n1CC(C)(C)O` [Conj R-848, reference compound] as the compound, how does the “IL-6 production (mean ± SE)” value (purified CD14+ cells) read?
**A.** 45.8 ± 15.2 ng/mL

**Q.** What about the “IL-10 production (mean ± SE)” value (purified CD14+ cells) of the same compound?
**A.** 2.0 ± 0.5 ng/mL

**Q.** What about the “IL-12p40 production (mean ± SE)” value (purified CD14+ cells) of the same compound?
**A.** 16.9 ± 6.3 ng/mL

**Q.** And the “TNF-alfa production (mean ± SE)” value (purified CD14+ cells)?
**A.** 16.3 ± 4.9 ng/mL

**Q.** What about the IFN-alfa production (purified BDCA4+ cells; [1]) of the same compound?
**A.** 3154 pg/mL

**Q.** What about the IL-6 production (purified BDCA4+ cells; [1]) of the same compound?
**A.** 746 pg/mL

**Q.** What about the IL-10 production (purified BDCA4+ cells; [1]) of the same compound?
**A.** 1500 pg/mL

**Q.** And the TNF-alfa production (purified BDCA4+ cells; [1])?
**A.** 10368 pg/mL

**Q.** And the IFN-alfa production (purified BDCA4+ cells; [2])?
**A.** 6187 pg/mL

**Q.** What about the IL-6 production (purified BDCA4+ cells; [2]) of the same compound?
**A.** 308 pg/mL

**Q.** And the IL-10 production (purified BDCA4+ cells; [2])?
**A.** 753 pg/mL

**Q.** And the TNF-alfa production (purified BDCA4+ cells; [2])?
**A.** 20990 pg/mL

**Q.** And the “IFN-alfa production (mean ± SE)” value (purified BDCA4+ cells; Table D, dose 2 μg/ml)?
**A.** 5.6 ± 2.5 ng/mL

**Q.** And the “IL-6 production (mean ± SE)” value (purified BDCA4+ cells; Table D, dose 2 μg/ml)?
**A.** 7.7 ± 2.6 ng/mL

**Q.** What about the “IL-10 production (mean ± SE)” value (purified BDCA4+ cells; Table D, dose 2 μg/ml) of the same compound?
**A.** 1.0 ± 0.6 ng/mL

**Q.** And the “TNF-alfa production (mean ± SE)” value (purified BDCA4+ cells; Table D, dose 2 μg/ml)?
**A.** 5.4 ± 1.4 ng/mL

**Q.** What about the IFN-alfa production (purified BDCA4+ cells; [3]) of the same compound?
**A.** 1131 pg/mL

**Q.** And the IL-6 production (purified BDCA4+ cells; [3])?
**A.** 44302 pg/mL

**Q.** What about the IL-10 production (purified BDCA4+ cells; [3]) of the same compound?
**A.** 1864 pg/mL

**Q.** What about the TNF-alfa production (purified BDCA4+ cells; [3]) of the same compound?
**A.** 4832 pg/mL

**Q.** And the IFN-alfa production (purified BDCA4+ cells; [4])?
**A.** 1605 pg/mL

**Q.** What about the IL-6 production (purified BDCA4+ cells; [4]) of the same compound?
**A.** 37603 pg/mL

**Q.** And the IL-10 production (purified BDCA4+ cells; [4])?
**A.** 1305 pg/mL

**Q.** And the TNF-alfa production (purified BDCA4+ cells; [4])?
**A.** 6898 pg/mL

**Q.** What about the “cytokine production from BDCA4+ cells (in words)” value (purified BDCA4+ cells; text to Tables C and D) of the same compound?
**A.** high levels of IFN-alfa, IL-10 and CXCL10

**Q.** And the “TLR7 activation (NF-κB luciferase) in transfected HEK293 cells” value (human TLR7)?
**A.** able to induce NF-κB expression

Source: patent US8822407B2, “Preparation of conjugates comprising adenine derivatives and allergenic proteins and their use for specific immunotherapy of allengenic diseases” (Universita' Degli Studi di Firenze, priority 2010, dated 2014)
